Converted amounts (≈) assume the structure as drawn.
Key:
[1] = tested on: Mycobacterium tuberculosis; assay: Antitubercular activity against Mycobacterium tuberculosis H37Rv assessed as inhibition of bacterial growth by broth microdilution method; format: functional
[2] = tested on: Mycobacterium tuberculosis; assay: Antibacterial activity against Mycobacterium tuberculosis H37Rv assessed as fold increase in sensitivity in presence of copper by REMA assay; format: functional
[3] = tested on: Mycobacterium tuberculosis; assay: Antitubercular activity against Mycobacterium tuberculosis H37Rv assessed as inhibition of bacterial growth incubated for 24 hrs by checkerboard assay; format: functional
[4] = tested on: Mycobacterium tuberculosis; assay: Antitubercular activity against Mycobacterium tuberculosis assessed as bacterial growth inhibition; format: functional
[5] = tested on: Mycobacterium tuberculosis; assay: Antitubercular activity against Mycobacterium tuberculosis H37Rv assessed as inhibition of bacterial growth; format: functional
[6] = tested on: Mycobacterium tuberculosis; assay: Antitubercular activity against Mycobacterium tuberculosis assessed as bacterial growth inhibition by CLSI based broth dilution method; format: functional
[7] = tested on: Mycobacterium tuberculosis; assay: Antitubercular activity against Mycobacterium tuberculosis H37Rv assessed as inhibition of bacterial growth incubated for 7 days by REMA assay; format: functional; settings: 168 h, time 7 day
[8] = tested on: Mycobacterium tuberculosis; assay: Antitubercular activity against Mycobacterium tuberculosis H37Ra assessed as inhibition of bacterial growth incubated for 28 days by microbroth dilution method; format: functional; settings: 672 h, time 28 day
[9] = tested on: Mycobacterium tuberculosis; assay: Antitubercular activity against Mycobacterium tuberculosis H37Rv assessed as inhibition of bacterial growth incubated for 5 days by turbidity-based growth inhibition assay; format: functional; settings: 120 h, time 5 day
[10] = tested on: Mycobacterium tuberculosis; assay: Antitubercular activity against Mycobacterium tuberculosis H37Rv […] THP-1 cells incubated for 48 hrs by microplate Alamar blue assay; format: functional
[11] = tested on: Mycobacterium tuberculosis; assay: Antitubercular activity against Mycobacterium tuberculosis H37Rv assessed as inhibition of bacterial growth incubated for 2 days by resazurin-based assay; format: functional; settings: 48 h, time 2 day
[12] = tested on: Mycobacterium tuberculosis; assay: Antitubercular activity against Mycobacterium tuberculosis H37Rv infected in ip dosed BALB/c mouse assessed as inhibition of bacterial growth; format: functional
[13] = tested on: Mycobacterium tuberculosis; assay: Antitubercular activity against Mycobacterium tuberculosis H37Rv assessed as inhibition of bacterial growth by incubated for 7 days by resazurin dye based broth microdilution method; format: functional; settings: 168 h, time 7 day
[14] = target: T1, Thioredoxin reductase (Mycobacterium tuberculosis) (UniProt P9WHH1); assay: Inhibition of Mycobacterium tuberculosis Thioredoxin reductase assessed as inhibition
T1 sequence (whole entry): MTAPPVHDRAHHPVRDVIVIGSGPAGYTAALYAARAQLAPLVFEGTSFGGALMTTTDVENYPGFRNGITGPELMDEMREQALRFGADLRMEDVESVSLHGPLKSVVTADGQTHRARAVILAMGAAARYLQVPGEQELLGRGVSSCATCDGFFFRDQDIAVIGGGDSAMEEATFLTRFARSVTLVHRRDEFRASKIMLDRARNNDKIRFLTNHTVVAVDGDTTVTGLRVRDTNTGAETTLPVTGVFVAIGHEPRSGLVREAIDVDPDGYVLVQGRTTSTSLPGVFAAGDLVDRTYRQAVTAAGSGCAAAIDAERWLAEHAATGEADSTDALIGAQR

[15] = tested on: Mycobacterium tuberculosis; assay: Antitubercular activity against Mycobacterium tuberculosis H37Rv assessed as inhibition of bacterial growth incubated for 5 days by REMA assay; format: functional; settings: 120 h, time 5 day
[16] = target: T2, Mycosin-1 (Mycobacterium tuberculosis (strain ATCC 25618 / H37Rv)) (UniProt O05461); assay: Inhibition of Mycobacterium tuberculosis MycP1 assessed as inhibition rate at 150 uM relative to control
T2 sequence (whole entry): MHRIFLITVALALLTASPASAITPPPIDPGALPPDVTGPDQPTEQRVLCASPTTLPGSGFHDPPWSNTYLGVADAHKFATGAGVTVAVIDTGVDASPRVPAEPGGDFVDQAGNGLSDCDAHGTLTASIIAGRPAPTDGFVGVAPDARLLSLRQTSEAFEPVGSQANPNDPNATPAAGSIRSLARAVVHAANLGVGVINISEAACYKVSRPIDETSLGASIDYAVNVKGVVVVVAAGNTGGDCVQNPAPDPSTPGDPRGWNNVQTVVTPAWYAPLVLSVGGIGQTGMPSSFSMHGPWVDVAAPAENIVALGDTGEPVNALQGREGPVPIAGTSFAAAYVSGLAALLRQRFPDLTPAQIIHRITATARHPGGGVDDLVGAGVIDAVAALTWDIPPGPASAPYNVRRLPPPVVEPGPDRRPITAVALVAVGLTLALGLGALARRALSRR

[17] = tested on: Mycobacterium tuberculosis; assay: Antitubercular activity against Mycobacterium tuberculosis H37Rv […] THP-1 cells in presence of pyrazinamide; format: functional, organism-based
[18] = tested on: Mycobacterium tuberculosis; assay: Antitubercular activity against Mycobacterium tuberculosis H37Rv […] THP-1 cells in presence of rifampin; format: functional, organism-based
[19] = tested on: Mycobacterium tuberculosis; assay: Antitubercular activity against Mycobacterium tuberculosis H37Rv […] THP-1 cells in presence of isoniazid; format: functional, organism-based
[20] = tested on: Mycobacterium tuberculosis; assay: Antitubercular activity against Mycobacterium tuberculosis H37Rv assessed as inhibition of bacterial growth incubated for […] by REMA assay; format: functional

C[C@@H](O)[C@H]1C(=O)N2C(C(=O)[O-])=C(SC3Cn4cnc[n+]4C3)[C@H](C)[C@H]12 (some centres not stated) [BIAPENEM]
MIC90 [1]: 2.5 µg/mL (≈ 7.13 µM)

CN(NC(=O)CC(=O)NN(C)C(=S)c1ccccc1)C(=S)c1ccccc1 [ELESCLOMOL]
fold change (FC) [2]: >65
MIC99 [3]: 4 µg/mL

NC(=O)c1cnccn1 [PYRAZINAMIDE]
MIC [4]: 0.01 µg/mL (≈ 0.0812 µM)

CC(C)CC(N)C(=O)NCC(=O)NC[C@H](C)B1OC2CC3CC(C3(C)C)[C@@]2(C)O1.Cl (some centres not stated)
MIC [5]: ≤ 5 µg/mL

CSC1=C(C(=O)[O-])N2C(=O)[C@H]([C@@H](C)O)[C@H]2[C@H]1C.[Na+]
MIC90 [6]: 0.25 µg/mL

O[C@@H](c1cc(C(F)(F)F)nc2c(C(F)(F)F)cccc12)[C@H]1CCCCN1 [(S,R)-MEFLOQUINE]
MIC [7]: 5 µg/mL (≈ 13.2 µM)

Nc1nc(N)c(-c2ccc(C(=O)Nc3cccc(OC(F)(F)F)c3)cc2)c(OCc2cncs2)n1
MIC [8]: 6.25 µg/mL (≈ 12.4 µM)

CC(C)C[C@H](NC(=O)[C@H](Cc1ccccc1)NC(=O)c1cnccn1)B(O)O [BORTEZOMIB]
MIC50 [9]: 4.3 µM (≈ 1.65 µg/mL)

C[C@@H](O)[C@H]1C(=O)N2C(C(=O)O)=C(SC3CN(C4=NCCS4)C3)[C@H](C)[C@H]12 [TEBIPENEM]
MIC90 [1]: 1.25 µg/mL (≈ 3.26 µM)

O=C(Nc1cccc2c(=O)cc(-c3nnn[nH]3)oc12)c1ccc(OCCCCc2ccccc2)cc1 [PRANLUKAST]
MIC90 [10]: 5 µg/mL (≈ 10.4 µM)

CC(C)C[C@H](N)C(=O)NCC(=O)NC[C@H](Cc1ccccc1)B(O)O
MIC [5]: ≤ 5 µg/mL

COc1nc2ccc(Br)cc2cc1[C@@H](c1ccccc1)[C@@](O)(CCN(C)C)c1cccc2ccccc12 [BEDAQUILINE]
MIC [11]: 0.06 µg/mL (≈ 0.108 µM)

CC(C)C[C@@H](N)C(=O)NCC(=O)NC[C@H](Cc1ccccc1)B(O)O.Cl
MIC [5]: ≤ 5 µg/mL

C=CCNC(=S)NNC(=S)NCC=C
MIC [4]: 0.5 µg/mL (≈ 2.17 µM)

CCCCC(CC)CNC(=N)NC(=N)NCCCCCCNC(=N)NC(=N)NCC(CC)CCCC.Cl.Cl (configuration not stated) [ALEXIDINE DIHYDROCHLORIDE]
MIC99 [12]: 0.05 µg/mL

COc1ccc2nc3cc(Cl)ccc3c(Nc3cc(CN4CCCC4)c(O)c(CN4CCCC4)c3)c2n1 [PYRONARIDINE]
MIC [13]: 5 µg/mL (≈ 9.65 µM)

CC(C)(C)c1ccc(-c2nn(-c3ccccc3)cc2Cn2ccnc2)cc1
MIC [7]: 1.56 µg/mL (≈ 4.38 µM)

CCCCCC/C=C/C=C\CCCCCCCC(=O)O
MIC [14]: < 20 µg/mL

C[C@@H](O)[C@H]1C(=O)N2C(C(=O)[O-])=C(SCC(=O)OC3CCCCC3)[C@H](C)[C@H]12.[Na+]
MIC90 [6]: 1 µg/mL

NNC(=O)c1ccncc1 [ISONIAZID]
MIC [4]: 0.01 µg/mL (≈ 0.0729 µM)

C[C@@H]1CC[C@H]2[C@@H](C)C(=O)O[C@@H]3O[C@@]4(C)CC[C@@H]1[C@]32OO4 [ARTEMISININ]
MIC [15]: 75 µg/mL (≈ 266 µM)

N=C(N)c1ccc(/N=N/Nc2ccc(C(=N)N)cc2)cc1
inhibition [16]: 58%

C[C@@H](O)[C@H]1C(=O)N2C(C(=O)O)=C(S[C@@H]3CN[C@H](CNS(N)(=O)=O)C3)[C@H](C)[C@H]12 (mixture of isomers) [DORIPENEM]
MIC90 [6]: 1 µg/mL

CC[C@H](C)C(=O)O[C@H]1C[C@H](O)C=C2C=C[C@H](C)[C@H](CC[C@@H](O)C[C@@H](O)CC(=O)O)[C@H]21 [PRAVASTATIN]
EC50 [17]: 7.8 µM
EC50 [18]: 7.8 µM
EC50 [19]: 7.8 µM

CC(C)Cc1ccc(-c2nn(-c3ccccc3)cc2Cn2ccnc2)cc1
MIC [7]: 1.56 µg/mL (≈ 4.38 µM)

CCCCC/C=C\C=C\CCCCCCCCC(=O)O
MIC [14]: < 20 µg/mL

CCCCCC/C=C/C=C/CCCCCCCC(=O)O
MIC [14]: < 20 µM
MIC [20]: 200 µg/mL (≈ 713 µM)

O=C(N[C@@H](Cc1ccccn1)C(=O)N[C@@H](CCc1ccccc1)B(O)O)c1cnccn1
MIC50 [9]: 2.5 µM (≈ 1.08 µg/mL)

COc1ccc(CCN(C)CCCC(C#N)(c2ccc(OC)c(OC)c2)C(C)C)cc1OC (configuration not stated) [VERAPAMIL]
MIC [5]: 125 µg/mL

CCCOC(=O)CSC1=C(C(=O)O)N2C(=O)[C@H]([C@@H](C)O)[C@H]2[C@H]1C
MIC90 [6]: 1 µg/mL (≈ 2.91 µM)

C=C1C[C@@]23CCC4[C@H](C(=O)O)CCC[C@@]4(C)[C@@H]2CC[C@@H]1C3 (some centres not stated)
MIC [14]: 0.5 µg/mL

C[C@H]1O[C@H](O[C@H]2[C@H](O)[C@@H](O)[C@@H](O[C@H]3[C@H](O)[C@@H](O)C(O)O[C@@H]3CO)O[C@@H]2CO)[C@H](O)[C@@H](O)[C@@H]1N[C@H]1C=C(CO)[C@@H](O)[C@H](O)[C@H]1O (some centres not stated) [ACARBOSE]
MIC [4]: 0.05 µg/mL (≈ 0.0774 µM)

CC/C=C\C/C=C\C/C=C\CCCCCCCC(=O)O [LINOLENIC ACID]
MIC [4]: > 320 µg/mL
MIC [20]: 200 µg/mL (≈ 718 µM)

CO[C@H]1/C=C/O[C@@]2(C)Oc3c(C)c(O)c4c(O)c(c(/C=N/N5CCN(C)CC5)c(O)c4c3C2=O)NC(=O)/C(C)=C\C=C\[C@H](C)[C@H](O)[C@@H](C)[C@@H](O)[C@@H](C)[C@H](OC(C)=O)[C@@H]1C [RIFAMPIN]
MIC [4]: 0.01 µg/mL (≈ 0.0122 µM)

CCC(C)(C)C(=O)O[C@H]1C[C@@H](C)C=C2C=C[C@H](C)[C@H](CC[C@@H]3C[C@@H](O)CC(=O)O3)[C@H]21 [SIMVASTATIN]
MIC [5]: > 320 µM

O=c1c2ccccc2[se]n1-c1ccccc1 [EBSELEN]
MIC50 [5]: 12.5 µg/mL (≈ 45.6 µM)

C[C@@H](CNC(=O)CNC(=O)C(N)CC(=O)O)B1OC2CC3CC(C3(C)C)[C@@]2(C)O1.Cl (some centres not stated)
MIC [5]: ≤ 5 µg/mL
